Usually pIC50 stands for the negative decadic logarithm of the IC50, by convention in mol/L.

The subject of one assay is CO. As to the kind of experiment: Ex vivo eicosanoid synthesis in dog whole blood, CO (prostaglandin F2α or TxB2) (Procedure IV). Particulars: Canis lupus familiaris, oral, read-out: PROC. IV % INHIB/HOURS CO; for inhibition at 5 mg/kg: 5 MPK. The procedure:
(§1) Ex Vivo eicosanoid synthesis in dog whole blood. Adult beagle or mongrel dogs (10-15 kg) of either sex were fasted overnight prior to the initiation of each experiment. The forelimb was clipped and swabbed with an alcohol prep (70% isopropanol). Blood was drawn by venipuncture into syringes containing lithium heparin (Starstead, Newton NC) immediately prior to administration of compound or vehicle and then at various intervals following dosing. The test compound was administered orally as a suspension in 0.5% methocel. At various times after dosing, blood samples were drawn and placed on an electric rocker platform to assure complete and continuous mixing. White blood cell (wbc) counts were performed using a Sysmex hematology analyzer. This was done in an effort to normalize the number of leukocytes to be stimulated with calcium ionophore. A 1.0 mL aliquot of whole blood was challenged with 50 μL of a 2.6×10^-5 M solution of calcium ionophore A23187 (Calbiochem, La Jolla, CA) prepared in DMSO and diluted in HBSS. After a 15 minute incubation at 37° C., the reaction was stopped by placing the samples in an ice bath (4° C.) for 5 minutes and then centrifuged at 11,000×g for 5 minutes to separate the plasma fraction from blood cells. The plasma fraction was removed, diluted in an appropriate buffer, and analyzed for the presence of LTB4 and prostaglandin F2α or TxB2 by standard RIA techniques. […]

Assay [1] has as its target T1, RBL-1 cell 5-lipoxygenase (Rattus norvegicus, UniProt P12527).
T1 construct: the supernatant was saved as the source of enzymes; endogenous in cells; host or cells: RBL-1 rat basophilic leukemia cells, homogenate supernatant
T1 sequence (P12527 1-673): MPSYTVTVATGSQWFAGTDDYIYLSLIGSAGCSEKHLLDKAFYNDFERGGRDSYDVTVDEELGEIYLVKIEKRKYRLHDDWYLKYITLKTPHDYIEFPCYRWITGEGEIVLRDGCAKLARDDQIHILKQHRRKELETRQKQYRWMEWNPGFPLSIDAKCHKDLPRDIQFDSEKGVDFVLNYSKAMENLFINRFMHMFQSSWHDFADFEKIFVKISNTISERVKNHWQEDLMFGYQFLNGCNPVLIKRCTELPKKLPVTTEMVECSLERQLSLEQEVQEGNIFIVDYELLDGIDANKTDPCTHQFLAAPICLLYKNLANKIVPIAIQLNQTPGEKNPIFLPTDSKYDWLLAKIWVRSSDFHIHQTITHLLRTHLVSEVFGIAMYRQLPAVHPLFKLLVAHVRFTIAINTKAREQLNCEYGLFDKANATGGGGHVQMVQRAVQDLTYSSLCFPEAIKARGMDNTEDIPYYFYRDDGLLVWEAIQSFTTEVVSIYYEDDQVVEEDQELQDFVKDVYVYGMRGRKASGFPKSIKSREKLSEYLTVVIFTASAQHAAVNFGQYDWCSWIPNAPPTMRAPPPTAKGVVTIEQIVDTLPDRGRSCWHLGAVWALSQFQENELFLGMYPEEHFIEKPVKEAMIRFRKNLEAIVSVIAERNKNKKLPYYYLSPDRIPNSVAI
As to the kind of experiment: RBL-1 cell 5-lipoxygenase, cell homogenate supernatant (Procedure II). In kind it is biochemical. Particulars: RBL-1 homogenate; for inhibition at 3 µM: read-out: PROC. II % INHIBITION 5-LO; for pIC50: read-out: PROC. II IC50 5-LO. How it is done:
RBL-1 cell 5-lipoxygenase and cyclooxygenase
Rat basophilic leukemia cells (RBL-1; 5×10^7 viable cells/mL) were disrupted by homogenization on ice (four 20 sec bursts) with a Brinkman polytron. Complete cell breakage was verified microscopically. The homogenate was then centrifuged at 10,000×g for 48 minutes at 4° C. The pellet was discarded and the supernatant was saved as the source of enzymes. The supernatant was pre-incubated for five minutes at 37° C. in the presence of 2 mM of CaCl2 and compound or vehicle (1% DMSO). The conversion of AA into 5-LO products was initiated by adding 10 μL (50 μCi) of 1-^14 C-AA to each tube and incubated at 37° C. for 20 minutes. The reaction was stopped by adjusting the pH of each sample to 3 to 3.5 with 2M formic acid. Samples were extracted with three volumes of chloroform to isolate the products of 5-LO formed during the reaction. Fractions were dried under nitrogen, then resuspended in 40 μL of chloroform and spotted onto silica gel HL plates. The plates were developed in A-9 solvent. The dried plates were analyzed using a Bioscan Imaging TLC scanner to determine the percentage of radiolabelled AA converted to 5-HETE in each sample.

In the next assay the test system is 5-LO. As to the kind of experiment: Ex vivo eicosanoid synthesis in dog whole blood, 5-LO (LTB4) (Procedure IV). The settings on record: Canis lupus familiaris, oral, read-out: PROC. IV % INHIB/HOURS 5-LO; for inhibition at 5 mg/kg: 5 MPK, 6 hours. How it is done: as §1
For the next assay, the system named is CO in intact RBL-1 cells. As to the kind of experiment: CO inhibition in intact RBL-1 cells (Procedure III). In kind it is cell-based, rat. The settings on record: superscript = number of experiments, read-out: PROC. III IC50 CO. The procedure:
(§2) The ability to inhibit 5-LO and CO in intact RBL-1 cells was also evaluated. RBL-1 cells were maintained in culture in minimal essential medium (Bio*Whittaker, Walkersville, MD), containing 12.5% fetal calf serum, 10 mg/mL streptomycin, 10 I.U./mL penicillin G, […] gentamycin and 2 mM L-glutamine (Bio*Whittaker, Walkersville, MD). Cells were collected by centrifugation, washed once in HBSS, and resuspended at a concentration of 1×10^5 cells/mL. Cells were incubated in the presence of vehicle or drug then centrifuged at 800×g for 10 minutes at 4° C. The supernatant was removed by aspiration and the cells were resuspended in 0.5 mL of HBSS. The reaction was started by the addition of 20 μg/mL of calcium ionophore A-23187 (mixed calcium and magnesium salts, Calbiochem, La Jolla CA) and allowed to proceed for 15 minutes, then stopped by plunging the tubes into a slush ice bath. The conversion of AA to 5-LO products was initiated by the addition of 10 μL (50 uCi) of 1-^14 C-AA. Products were isolated by acidification and extraction, followed by thin layer chromatography analysis as described above. Radioactive areas corresponding to authentic 5-LO and CO products were quantitated by the Bioscan 2000 Imaging System.

Assay [2] deals with T2, 5-LO in intact RBL-1 cells (Rattus norvegicus, UniProt P12527).
T2 construct: endogenous in cells; host or cells: intact RBL-1 cells
T2 sequence (P12527 1-673): T1 sequence (P12527 1-673)
As to the kind of experiment: 5-LO inhibition in intact RBL-1 cells (Procedure III). The format is cell-based. The settings on record: read-out: PROC. III IC50 5-LO. The procedure:
as §2

pIC50: −log10 of the molar value. Where two headings read alike, the source gives them in different places.

On to `COc1ccc(-n2nc(CSC(=S)N(O)C(C)C)c(Br)c2-c2ccc(Cl)cc2)cc1` [1-E], for which the inhibition at 5 mg/kg with CO (6 hours) stood at 31%; in the assay on 5-LO, 41%. In addition, the inhibition at 3 µM in assay [1] is 73%. Besides, the pIC50 in assay [1] was 7.40; with CO in intact RBL-1 cells it was 5.19; in assay [2] it was 5.55.
Turning to `COc1ccc(-n2nc(CSC(=S)N(C)O)c(Cl)c2-c2ccc(C)cc2)cc1` [1-H], in assay [1], the inhibition at 3 µM came to 91%. Further, the pIC50 in the assay on CO in intact RBL-1 cells is 5.80; in assay [2] it was 6.17.
In the case of `COc1ccc(-n2nc(CSC(=S)N(O)C(C)C)cc2-c2ccc(C)cc2)cc1` [1-G], the inhibition at 3 µM in assay [1] was 79%. For the same compound, the results for the negative-log IC50 (pIC50) (in assay [1]; with CO in intact RBL-1 cells; in assay [2]) were 7.70, 6.74 and 5.25, respectively.
Take `COc1ccc(-n2nc(CSC(=S)N(O)C(C)C)cc2-c2ccc(Cl)cc2)cc1` [1-B]: the inhibition at 1 mg/kg in the assay on CO (1 MPK, 2 hours) was found to be 77%; in the assay with 5-LO (1 MPK, 2 hours), 36%. Also, in assay [1], the inhibition at 3 µM came out at 100%. Further, the pIC50 in assay [1] was 6.24; in the assay on CO in intact RBL-1 cells, 5.85; in assay [2], 5.15.
Regarding `COc1ccc(-n2nc(CSC(=S)N(O)C(C)C)c(Cl)c2-c2ccc(Cl)cc2)cc1` [1-D], the inhibition at 5 mg/kg came out at 32% in the assay on CO (24 hours) and 2% in the assay on 5-LO. Besides, the inhibition at 3 µM in assay [1] is 70%. Also, the pIC50 in assay [1] was 7.15.
Regarding `COc1ccc(-n2nc(CSC(=S)N(C)O)c(Cl)c2-c2ccc(Cl)cc2)cc1` [1-C], in assay [1], the inhibition at 3 µM turned out to be 91%. The results for the pIC50 (in the assay with CO in intact RBL-1 cells; in assay [2]) were 5.62 and 6.62, respectively.

The record behind these values is patent US5298521A, “1,5-diphenyl-3-pyrazolylalkyl-N-hydroxydithiocaramates, compositions and use” (Ortho Pharmaceutical Corporation, priority 1993, dated 1994).
